Where a SMILES comes first, the peptide text is derived from it. The star is where a group is joined. Cbz = O=C(OCc1ccccc1)*

Drawing on paper PMC9728238, “Heterologous Expression of Recombinant Transglutaminase in Bacillus subtilis SCK6 with Optimized Signal Peptide and Codon, and Its Impact on Gelatin Properties” (Journal of Microbiology and Biotechnology, 2020), this text covers Km for one molecule.

This assay concerns the target T1, MTG (recombinant microbial transglutaminase, TGase) (Streptomyces sp., UniProt A0A6H0XHW2).
T1 construct: pro-mature gene (1,149 bp) without native signal peptide, codon-optimized, behind B. subtilis YncM signal peptide; secreted by Bacillus subtilis SCK6; purified mature enzyme, 38 kDa; no tag told
T1 sequence (A0A6H0XHW2 80-410): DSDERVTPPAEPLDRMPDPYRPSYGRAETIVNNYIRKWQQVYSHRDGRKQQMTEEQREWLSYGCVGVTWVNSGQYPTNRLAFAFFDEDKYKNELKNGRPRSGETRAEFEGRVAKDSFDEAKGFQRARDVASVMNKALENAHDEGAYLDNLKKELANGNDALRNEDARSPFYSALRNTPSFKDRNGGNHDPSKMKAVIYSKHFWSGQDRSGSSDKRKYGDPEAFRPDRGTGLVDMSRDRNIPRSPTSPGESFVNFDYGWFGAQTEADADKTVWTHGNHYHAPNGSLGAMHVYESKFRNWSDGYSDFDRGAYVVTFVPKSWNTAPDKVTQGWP
As to the kind of experiment: hydroxamate assay ([…] nm), Lineweaver-Burk plot. The class given is biochemical. Conditions: CBZ-Gln-Gly 5 to 30 mmol/l; pH 6.0; 37 °C; co-substrate hydroxylamine 100 mM, glutathione 10 mM; unit as printed (presumably μmol/ml).

On to `NC(=O)CC[C@H](NC(=O)OCc1ccccc1)C(=O)NCC(=O)O` [CBZ-Gln-Gly] (Cbz-Gln-Gly-OH), for which the Km came to 16.93 μM/ml.
